This is an account of results in patent US11661422B2, “Tricyclic urea compounds as JAK2 V617F inhibitors” (Incyte Corporation, priority 2020, dated 2023).

Each structure is given as a SMILES string. Some results are limits rather than exact numbers.

Experiment [1] deals with pseudo-kinase domain (JH2, amino-acids 536-812) of human Wild Type JAK2 (Homo sapiens (Human), UniProt O60674, F794H/W659A/W777A). Nature of the experiment: JAK2 LanthaScreen JH2-WT Binding Assay. As to conditions: JAK2 JH2-WT 0.145 nM, 50 nM fluorescent tracer, 1 hour at 25° C.; read-out: JH2 BIND WT IC50. The protocol:
Example B. JAK2 LanthaScreen JH2-WT Binding Assay
(§1) The assay was conducted in black 384-well polystyrene plates in a final reaction volume of 20 μL. JAK2 JH2-WT (0.145 nM) was incubated with compounds (100 nL serially diluted in DMSO) in the presence of 50 nM Fluorescent JAK2-JH2 Tracer (MedChem Express Catalog #HY-102055) and 0.25 nM Streptavidin-Tb cryptate (Cisbio Part #610SATLB) in assay buffer (50 mM Tris, pH=7.5, 10 mM MgCl2, 0.01% Brij-35, 0.1% BSA, 1 mM EGTA, 5% Glycerol and 5 mM DTT). Non-specific binding was accessed in the presence of 2 mM ATP. After incubation for 1 hour at 25° C., LanthaScreen signals were read on a PHERAstar FS plate reader (BMG LABTECH). Data was analyzed with IDBS XLfit and GraphPad Prism 5.0 software using a four parameter dose response curve to determine IC50 for each compound.

The target in experiment [2] is catalytic domain (JH1, amino acids 826-1132) of human JAK2 (Homo sapiens (Human), UniProt O60674). Nature of the experiment: JAK2 LanthaScreen JH1 Binding Assay. As to conditions: JAK2 JH1 1.5 nM, 50 nM fluorescent tracer, 2 hours at 25° C.; read-out: JH1 BIND IC50. As for the experimental part:
Example A. JAK2 LanthaScreen JH1 Binding Assay
as §1, with “JAK2 JH1 binding assay utilizes catalytic domain (JH1, amino acids 826-1132) of human JAK2 expressed as N-terminal FLAG-tagged, biotinylated protein in a baculovirus expression system (Carna Biosciences, Product #08-445-20N). The” for “The”, “JH1 (1.5” for “JH2-WT (0.145”, “JAK2-JH1” for “JAK2-JH2”, “Tracer” for “Tracer (MedChem Express Catalog #HY-102055)”, “0.5” for “0.25”, “2 hours” for “1 hour”

Experiment [3] deals with catalytic domain (JH1, amino acids 808-1132) of human JAK2 (Homo sapiens (Human), UniProt O60674). Nature of the experiment: JAK2 HTRF Enzyme Activity Assay. It counts as biochemical. As to conditions: JAK2 0.015 nM, ATP (30 μM or 1 mM), 60 minutes at 25° C. The protocol:
Example D. JAK2 HTRF Enzyme Activity Assay
JAK2 enzyme activity assays utilize catalytic domain (JH1, amino acids 808-1132) of human JAK2 expressed as N-terminal His-tagged protein in a baculovirus expression system (BPS Bioscience, Catalog #40450). The assays was conducted in black 384-well polystyrene plates in a final reaction volume of 20 μL. JAK2 (0.015 nM) was incubated with compounds (100 nL serially diluted in DMSO) in the presence of ATP (30 μM or 1 mM) and 500 nM Biotin-labeled […] (SEQ ID NO.: 1) peptide (BioSource International, custom synthesis) in assay buffer (50 mM Tris, pH=7.5, 10 mM MgCl2, 0.01% Brij-35, 0.1% BSA, 1 mM EGTA, 5% Glycerol and 5 mM DTT) for 60 minutes at 25° C. The reactions were stopped by the addition of 10 μL of detection buffer (50 mM Tris, pH 7.8, 0.5 mg/mL BSA, 150 mM NaCl), supplemented with EDTA, LANCE Eu-W1024 anti-phosphotyrosine (PY20), (PerkinElmer, Catalog #AD0067) and Streptavidin SureLight APC (PerkinElmer Catalog #CR130-100), for a final concentration of 15 mM, 1.5 nM and 75 nM, respectively. HTRF signals were read after 30 minutes incubation at room temperature on a PHERAstar FS plate reader (BMG LABTECH). Data was analyzed with IDBS XLfit and GraphPad Prism 5.0 software using a four parameter dose response curve to determine IC50 for each compound.

The target of experiment [4] is pseudo-kinase domain (JH2, amino-acids 536-812) of human V617F mutant JAK2 (Homo sapiens (Human), UniProt O60674, F794H/V617F/W659A/W777A). Nature of the experiment: JAK2 LanthaScreen JH2-V617F Binding Assay. As to conditions: JAK2 JH2-V617F 0.26 nM, 50 nM fluorescent tracer, 1 hour at 25° C.; read-out: JH2 BIND V617F IC50. The protocol:
The assay was conducted in black 384-well polystyrene plates in a final reaction volume of 20 μL. […] Non-specific binding was accessed in the presence of 2 mM ATP. After incubation for 1 hour at 25° C., LanthaScreen signals were read on a PHERAstar FS plate reader (BMG LABTECH). Data was analyzed with IDBS XLfit and GraphPad Prism 5.0 software using a four parameter dose response curve to determine IC50 for each compound.

catalytic domain (JH1, amino acids 808-1132) of human JAK2, sequence (O60674 808-1132): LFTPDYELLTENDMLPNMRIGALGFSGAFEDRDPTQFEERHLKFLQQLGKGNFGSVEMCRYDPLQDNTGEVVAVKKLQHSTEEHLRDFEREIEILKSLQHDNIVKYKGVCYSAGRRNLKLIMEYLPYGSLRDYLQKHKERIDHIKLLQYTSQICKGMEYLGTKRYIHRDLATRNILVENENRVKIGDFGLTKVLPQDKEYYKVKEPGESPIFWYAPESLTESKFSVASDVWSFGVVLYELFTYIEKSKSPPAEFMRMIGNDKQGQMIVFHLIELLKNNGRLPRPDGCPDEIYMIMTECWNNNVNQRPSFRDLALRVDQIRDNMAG
pseudo-kinase domain (JH2, amino-acids 536-812) of human V617F mutant JAK2, sequence (O60674 536-812 V617F/W659A/W777A/F794H): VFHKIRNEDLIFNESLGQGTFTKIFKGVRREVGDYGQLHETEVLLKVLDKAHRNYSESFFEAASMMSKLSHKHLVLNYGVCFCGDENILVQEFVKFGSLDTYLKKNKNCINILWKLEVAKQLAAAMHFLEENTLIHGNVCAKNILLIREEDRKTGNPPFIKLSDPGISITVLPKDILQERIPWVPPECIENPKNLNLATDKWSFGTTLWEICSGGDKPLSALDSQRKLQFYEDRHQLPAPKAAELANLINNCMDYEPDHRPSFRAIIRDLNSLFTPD
catalytic domain (JH1, amino acids 826-1132) of human JAK2, sequence (O60674 826-1132): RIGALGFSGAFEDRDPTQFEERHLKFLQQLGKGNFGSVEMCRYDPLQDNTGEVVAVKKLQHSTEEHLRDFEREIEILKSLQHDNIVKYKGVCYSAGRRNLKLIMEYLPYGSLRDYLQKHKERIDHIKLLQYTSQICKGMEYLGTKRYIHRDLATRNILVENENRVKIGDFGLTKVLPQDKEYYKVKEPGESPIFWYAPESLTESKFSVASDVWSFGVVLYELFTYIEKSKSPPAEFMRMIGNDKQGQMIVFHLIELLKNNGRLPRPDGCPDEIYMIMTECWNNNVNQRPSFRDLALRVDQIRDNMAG
pseudo-kinase domain (JH2, amino-acids 536-812) of human Wild Type JAK2, sequence (O60674 536-812 W659A/W777A/F794H): as the sequence (O60674 536-812 V617F/W659A/W777A/F794H) above, with F82V counted along it

On to `CC1c2c(cnc3[nH]c(-c4ccc(CN5CCC(S(C)(=O)=O)CC5)cc4)cc23)N(C)C(=O)N1c1ccc(C(=O)O)cc1` (racemic) [Example 10, 4-(1,4-Dimethyl-8-(4-((4-(methylsulfonyl)piperidin-1-yl)methyl)phenyl)-3-oxo-1,3,4,7-tetrahydro-2H-pyrrolo[3′,2′:5,6]pyrido[3,4-d]pyrimidin-2-yl)benzoic Acid], for which the IC50 was at most 100 nM in experiment [1], 1000 to 2500 nM in experiment [2], 1000 to 2500 nM in experiment [3] and 100 to 500 nM in experiment [4].
For the compound `CN1C(=O)N(C(C)(C)C)Cc2c1cnc1[nH]c(-c3ccc(CN4CCC(S(C)(=O)=O)CC4)cc3)c(-c3ccc(C(=O)NCC4(C#N)CC4)cc3)c21` [Example 14, 4-(2-(tert-Butyl)-4-methyl-8-(4-((4-(methylsulfonyl)piperidin-1-yl)methyl)phenyl)-3-oxo-2,3,4,7-tetrahydro-1H-pyrrolo[3′,2′:5,6]pyrido[3,4-d]pyrimidin-9-yl)-N-((1-cyanocyclopropyl)methyl)benzamide Trifluoroacetic Acid], the IC50 in experiment [1], in experiment [2], in experiment [3] and in experiment [4] was at most 100 nM throughout.
